“Also recorded” adds a separate entry of the source.
Legend:
Type in all cases: cell-based, human
[1] = Resazurin cytotoxicity assay in hRPTECs; conditions: human, hRPTECs (passage 2); 72 h incubation; Mean ± Standard deviation, n = 3
Procedure: (§1) For the MTT assay, the medium was then removed, the dried crystals were resuspended in 60 μL of Dimethyl sulfoxide (DMSO), and the absorbance was read at 570 nm. For the resazurin assay, the fluorescence intensity was read using a PolarStar Omega plate reader (BMG Labtech; Mornington VIC, Australia) at excitation/emission 560/590 nm. All assays were performed at least three times. […] La Jolla, CA). Both MTT and resazurin assays were performed three times, with two technical replicates in each assay.

NGAL [2] = assay: NGAL protein ELISA in hRPTECs; design: key to Upregulation of NGAL hRPTECs P: +: statistically significant increase; −: no significant increase; conditions: for NGAL protein in hRPTEC culture medium: 24 h
Procedure: (§2) HK-2 cells (ATCC CRL-2190; Manassas, VA) were maintained in DMEM/F12 (Life Technologies; Sydney, NSW, Australia) supplemented with 5 μg/mL insulin, 5 μg/mL transferrin, 5 ng/mL sodium selenite (ITS; Roche; […] (passage 2) and culture kits were purchased from Lonza. […] were maintained in Renal Epithelial Cell BulletKitTM (CC-3190, Lonza) at 37°C and 5% CO2 atmosphere. Cells were passaged to 96-well plates with a density of 4000 cells/well. After 24 h culture, compounds with different concentration series were added into each well and incubated for 4, 24, 48, and 72 h. KIM-1 (DY1750), NGAL (DY1757), and M-CSF (DY216) Duo-Set® ELISA kits were purchased from R&D systems (Minneapolis, MN). Sandwich-ELISA experiments were conducted following the manufacturer's instructions with slight modifications. A 96-well microplate (MaxiSorp®, Nunc, Thermo Scientific, NSW, Australia) was coated with 100 μL of capture antibodies (diluted 1:200 in PBS) and incubated overnight. The plate was then washed twice with washing buffer (0.05% Tween 20 in PBS, pH 7.4) and blocked by adding 300 μL of blocking buffer (1% bovine serum albumin (BSA) in PBS) for 1 h at room temperature. After washing two times with PBS, 100 μL of samples (cell culture media or cell lysates) or standards were then added to each well and incubated for 2 h at room temperature. The biotinylated detection antibodies were then diluted in blocking buffer, added to each well and incubated for 2 h. Horseradish peroxidase (HRP)-labeled streptavidin (100 μL) was then added to bind to detection antibodies. To each well, 100 μL of substrate solution (1:1 mixture of H2O2 and tetramethylbenzidine) was added and incubated for 20 min before reaction termination with 50 μL of stop solution (2N H2SO4). The optical density of each well was measured at 450 nm using a POLARstar Omega plate reader (BMG Labtech). All assays were performed at least three times, with at least two technical replicates in each assay.

KIM-1 mRNA [3] = assay: KIM-1 mRNA qRT-PCR in hRPTECs; design: key to Upregulation of KIM-1 hRPTECs R: +: statistically significant increase; −: no significant increase
Procedure: (§3) HK-2 cells (ATCC CRL-2190; Manassas, VA) were maintained in DMEM/F12 (Life Technologies; Sydney, NSW, Australia) supplemented with 5 μg/mL insulin, 5 μg/mL transferrin, 5 ng/mL sodium selenite (ITS; Roche; […] (passage 2) and culture kits were purchased from Lonza. […] were maintained in Renal Epithelial Cell BulletKitTM (CC-3190, Lonza) at 37°C and 5% CO2 atmosphere. Cells were passaged to 96-well plates with a density of 4000 cells/well. After 24 h culture, compounds with different concentration series were added into each well and incubated for 4, 24, 48, and 72 h. HK-2 and […] were treated with compounds for 4, 24, 48, and 72 h, then the cells were lysed and the RNA reverse transcribed with the TaqMan® Gene Expression Cells-to-CTTM Kit (Life Technologies) according to the manufacturer's instructions. […] Hs00273334_m1), Lcn2 (NGAL; Hs01008571_m1), and Csf1 (M-CSF; Hs00174164_m1). All probes span an exon-exon junction. The real-time quantitative reverse transcription PCR (qRT-PCR) was performed in a 10 μl final reaction mixture using a ViiA 7TM system (Applied Biosystems®, Sydney, NSW, Australia) based on the following thermo cycling conditions: 10 min at 95°C for one cycle, 15 sec at 95°C, 60 sec at 60°C for 40 cycles. The ViiA 7TM software was used for data analysis with Hprt1 expression used for normalization. All assays were performed at least three times, with at least two technical replicates in each assay.

M-CSF mRNA = M-CSF mRNA qRT-PCR in hRPTECs; conditions: 72 h (Fig.4C)
Procedure: Hs00273334_m1), Lcn2 (NGAL; Hs01008571_m1), and Csf1 (M-CSF; Hs00174164_m1). All probes span an exon-exon junction. The real-time quantitative reverse transcription PCR (qRT-PCR) was performed in a 10 μl final reaction mixture using a ViiA 7TM system (Applied Biosystems®, Sydney, NSW, Australia) based on the following thermo cycling conditions: 10 min at 95°C for one cycle, 15 sec at 95°C, 60 sec at 60°C for 40 cycles. The ViiA 7TM software was used for data analysis with Hprt1 expression used for normalization. All assays were performed at least three times, with at least two technical replicates in each assay.

[4] = MTT cytotoxicity assay in hRPTECs; conditions: human, hRPTECs (passage 2); 72 h incubation; Mean ± Standard deviation, n = 3
Procedure: as §1

[5] = Resazurin cytotoxicity assay in HK-2 cells; conditions: human, HK-2 cells; 72 h incubation; Mean ± Standard deviation, n = 3
Procedure: as §1

NGAL mRNA [6] = assay: NGAL mRNA qRT-PCR in hRPTECs; design: key to Upregulation of NGAL hRPTECs R: +: statistically significant increase; −: no significant increase
Procedure: as §3

KIM-1 mRNA [7] = assay: KIM-1 mRNA qRT-PCR in HK-2 cells; design: key to Upregulation of KIM-1 HK-2 R: +: statistically significant increase; −: no significant increase
Procedure: as §3

[8] = MTT cytotoxicity assay in HK-2 cells; conditions: human, HK-2 cells; 72 h incubation; Mean ± Standard deviation, n = 3
Procedure: as §1

NGAL mRNA [9] = assay: NGAL mRNA qRT-PCR in HK-2 cells; design: key to Upregulation of NGAL HK-2 R: +: statistically significant increase; −: no significant increase; conditions: mRNA levels; 72 h time point
Procedure: as §3

NGAL [10] = assay: NGAL protein ELISA in HK-2 cells; design: key: +: statistically significant increase; −: no significant increase; conditions: protein levels in culture medium; 72 h time point
Procedure: as §2

KIM-1 [11] = assay: KIM-1 protein ELISA in HK-2 cells; design: key: +: statistically significant increase; −: no significant increase; conditions: protein levels in culture medium; 72 h time point
Procedure: as §2

KIM-1 [12] = assay: KIM-1 protein ELISA in hRPTECs; design: key to Upregulation of KIM-1 hRPTECs P: +: statistically significant increase; −: no significant increase
Procedure: as §2

[13] = protein levels in culture medium, 72 h time point

NGAL protein in hRPTEC culture medium (NGAL [2])	KIM-1 mRNA transcription level in HK-2 cells (KIM-1 mRNA [7]; 72 h, P < 0.005)	Upregulation of NGAL hRPTECs P (NGAL [2]; [13])	Upregulation of KIM-1 hRPTECs R (KIM-1 mRNA [3]; mRNA levels, 72 h time point)	Upregulation of NGAL HK-2 R (NGAL mRNA [9])	Upregulation of NGAL HK-2 P (NGAL [10])	Upregulation of KIM-1 HK-2 P (KIM-1 [11])	Upregulation of NGAL hRPTECs R (NGAL mRNA [6]; mRNA levels, 72 h time point)	KIM-1 protein upregulation in hRPTECs (KIM-1 [12]; 4 h, culture medium (Fig. S5A))	Upregulation of KIM-1 hRPTECs P (KIM-1 [12]; [13])	Upregulation of KIM-1 HK-2 R (KIM-1 mRNA [7]; mRNA levels, 72 h time point)	Compound	CC50 at 72 h [1] [µM]	KIM-1 mRNA in hRPTECs (KIM-1 mRNA [3]; 72 h, high dose)	M-CSF mRNA levels in hRPTECs (M-CSF mRNA)	CC50 at 72 h [4] [µM]	CC50 at 72 h [5] [µM]	NGAL mRNA levels in hRPTECs (NGAL mRNA [6]; 72 h exposure, 1 μmol/L (high dose), P < 0.001)	CC50 at 72 h [8] [µM]
increases	increased										COc1cccc2c1C(=O)c1c(O)c3c(c(O)c1C2=O)C[C@@](O)(C(=O)CO)C[C@@H]3O[C@H]1C[C@H](N)[C@H](O)[C@H](C)O1 [Doxorubicin, doxorubicin]	5.2 ± 1	stimulation; also recorded: significant induction	significant results; also recorded: significant induction	> 50	2.1 ± 1	kept rising; also recorded: significant induction	> 50
increases		+	−	−	−	−	−	significant upregulation	+	−	C[C@@H]1[C@H](O)[C@@H](C)/C=C/C=C/C=C/C=C/C=C/C=C/C=C/[C@H](O[C@@H]2O[C@H](C)[C@@H](O)[C@H](N)[C@@H]2O)C[C@@H]2O[C@](O)(C[C@@H](O)C[C@@H](O)[C@H](O)CC[C@@H](O)C[C@@H](O)CC(=O)O[C@H]1C)C[C@H](O)[C@H]2C(=O)O [AmB, amphotericin B]	6 ± 1			> 50	20 ± 3		> 50

Reference: paper PMC4492764, “Evaluation of biomarkers for in vitro prediction of drug-induced nephrotoxicity: comparison of HK-2, immortalized human proximal tubule epithelial, and primary cultures of human proximal tubular cells” (Pharmacology Research & Perspectives, 2015)
